Assay results taken from article PMC3511314, “Functional Characterization of Two M42 Aminopeptidases Erroneously Annotated as Cellulases” (PLoS ONE, 2012).

How the values were obtained:
Assay type in all cases: biochemical
TmPep1050 [1] = biological target: T1, TmPep1050 (Thermotoga maritima, UniProt Q9X0E0); assay: inhibition of leucine aminopeptidase activity of purified enzyme, apparent Ki
T1 construct: gene TM_1050; recombinant TmPep1050 (TM1050 ORF)
T1 sequence (Q9X0E0 1-331): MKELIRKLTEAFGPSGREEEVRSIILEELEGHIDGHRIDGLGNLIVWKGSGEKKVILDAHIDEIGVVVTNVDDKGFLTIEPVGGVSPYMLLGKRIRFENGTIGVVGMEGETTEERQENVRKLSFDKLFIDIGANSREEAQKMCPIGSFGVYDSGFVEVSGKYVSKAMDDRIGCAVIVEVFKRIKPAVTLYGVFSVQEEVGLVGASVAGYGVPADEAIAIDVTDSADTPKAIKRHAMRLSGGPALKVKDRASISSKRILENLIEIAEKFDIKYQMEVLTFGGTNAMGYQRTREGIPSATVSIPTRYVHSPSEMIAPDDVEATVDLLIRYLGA

CelM [2] = biological target: T2, CelM (Acetivibrio thermocellus, UniProt P55742); assay: as above
T2 construct: recombinant CelM bearing a C-terminal hexahistidine tag
T2 sequence (P55742 1-330): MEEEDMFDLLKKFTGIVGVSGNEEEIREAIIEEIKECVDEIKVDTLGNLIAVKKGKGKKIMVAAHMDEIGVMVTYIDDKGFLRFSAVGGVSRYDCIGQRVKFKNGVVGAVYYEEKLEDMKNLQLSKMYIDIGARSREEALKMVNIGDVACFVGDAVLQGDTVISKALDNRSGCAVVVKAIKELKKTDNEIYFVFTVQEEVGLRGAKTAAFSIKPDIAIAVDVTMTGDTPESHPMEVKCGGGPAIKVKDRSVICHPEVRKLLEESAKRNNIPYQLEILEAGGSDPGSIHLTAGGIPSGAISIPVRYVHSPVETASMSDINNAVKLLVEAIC

TmPep1050 [3] = biological target: T1, TmPep1050; assay: specific activity of pNA hydrolysis at […] substrate
CelM [4] = biological target: T2, CelM; assay: specific activity of pNA hydrolysis at […] substrate

Row | Structure (SMILES) | Ki (TmPep1050 [1]) [nM] | Ki (CelM [2]) [nM] | TmPep1050 sp act (TmPep1050 [3]) [µmol min^−1 µmol^−1] | CelM sp act (CelM [4]) [µmol min^−1 µmol^−1]
1 | CC(C)C[C@H](NC(=O)[C@@H](O)[C@H](N)Cc1ccccc1)C(=O)O [bestatin] | 432 ± 72 | 292 ± 66 |  | 
2 | CC(C)[C@H](N)C(=O)Nc1ccc([N+](=O)[O-])cc1 [L-Val-pNA] |  |  | 14.3±1.8 | 8.4±0.016
